US7495018B2, “Substituted 1,3-thiazole compounds, their production and use” (Takeda Pharmaceutical Company Limited, priority 2000, dated 2009)

SMILES | melting point [°C]
CCC(=O)Nc1cc(-c2sc(C(C)OC(=O)c3ccccc3)nc2-c2cccc(C)c2)ccn1 (centres unmarked) [Example 102-5, 1-[4-(3-methylphenyl)-5-(2-propionylamino-4-pyridyl)-1,3-thiazol-2-yl]ethyl benzoate] | 102 to 103
CCC(=O)Nc1cc(-c2sc(C(C)OC(=O)c3ccccc3)nc2-c2cccc(Cl)c2)ccn1 (centres unmarked) [Example 102-6, 1-[4-(3-chlorophenyl)-5-(2-propionylamino-4-pyridyl)-1,3-thiazol-2-yl]ethyl benzoate] | 124 to 127
CC(=O)Nc1cc(-c2sc(C(C)OC(=O)c3ccccc3)nc2-c2cccc(Cl)c2)ccn1 (centres unmarked) [Example 103-1, 1-[5-(2-acetylamino-4-pyridyl)-4-(3-chlorophenyl)-1,3-thiazol-2-yl]ethyl benzoate] | 152 to 154
CCOC(=O)Cc1nc(-c2cccc(Cl)c2)c(-c2ccnc(NC(C)=O)c2)s1 [Example 103-2, ethyl [5-(2-acetylamino-4-pyridyl)-4-(3-chlorophenyl)-1,3-thiazol-2-yl]acetate] | 99 to 100
CCC(=O)Nc1cc(-c2sc(C(C)O)nc2-c2cccc(Cl)c2)ccn1 (centres unmarked) [Example 105, N-[4-[4-(3-chlorophenyl)-2-(1-hydroxyethyl)-1,3-thiazol-5-yl]-2-pyridyl]propionamide] | 131 to 132
CCC(=O)Nc1cc(-c2sc(C(C)=O)nc2-c2cccc(Cl)c2)ccn1 [Example 107, N-[4-[2-acetyl-4-(3-chlorophenyl)-1,3-thiazol-5-yl]-2-pyridyl]propionamide] | 115 to 117
CCNC(=O)Nc1cc(-c2sc(CC)nc2-c2cccc(C)c2)ccn1 [Example 108, N-ethyl-N′-[4-[2-ethyl-4-(3-methylphenyl)-1,3-thiazol-5-yl]-2-pyridyl]urea] | 177 to 180
CC(=O)Nc1cc(-c2sc(C(C)OC(=O)c3ccccc3)nc2-c2cccc(C)c2)ccn1 (centres unmarked) [Example 110, 1-[5-(2-acetylamino-4-pyridyl)-4-(3-methylphenyl)-1,3-thiazol-2-yl]ethyl benzoate] | 110 to 113
CC(=O)Nc1cc(-c2sc(C(C)O)nc2-c2cccc(C)c2)ccn1 (centres unmarked) [Example 111-1, N-[4-[2-(1-hydroxyethyl)-4-(3-methylphenyl)-1,3-thiazol-5-yl]-2-pyridyl]acetamide] | 99 to 102
CC(=O)Nc1cc(-c2sc(C(C)O)nc2-c2cccc(Cl)c2)ccn1 (centres unmarked) [Example 111-2, N-[4-[4-(3-chlorophenyl)-2-(1-hydroxyethyl)-1,3-thiazol-5-yl]-2-pyridyl]acetamide] | 142 to 145
CC(=O)Nc1cc(-c2sc(C(C)=O)nc2-c2cccc(Cl)c2)ccn1 [Example 112, N-[4-[2-acetyl-4-(3-chlorophenyl)-1,3-thiazol-5-yl]-2-pyridyl]acetamide] | 180 to 183
CSCc1nc(-c2cccc(C)c2)c(-c2ccnc(N)c2)s1 [Example 113-1, 4-[4-(3-methylphenyl)-2-(methylthio)methyl-1,3-thiazol-5-yl]-2-pyridylamine] | 113 to 114
Cc1cccc(-c2nc(C(C)(F)F)sc2-c2ccnc(N)c2)c1 [Example 113-2, 4-[2-(1,1-difluoroethyl)-4-(3-methylphenyl)-1,3-thiazol-5-yl]-2-pyridylamine] | 140 to 141
COc1cccc(-c2nc(N)sc2-c2ccnc(F)c2)c1 [Example Compound 7-1, [5-(2-fluoro-4-pyridyl)-4-(3-methoxyphenyl)-1,3-thiazol-2-yl]amine] | 190 to 191
Nc1nc(-c2ccc(F)cc2)c(-c2ccnc(F)c2)s1 [Example Compound 7-3, [4-(4-fluorophenyl)-5-(2-fluoro-4-pyridyl)-1,3-thiazol-2-yl]amine] | 243 to 245
Cc1cccc(-c2nc(N)sc2-c2ccnc(C)c2)c1 [Example Compound 7-4, [4-(3-methylphenyl)-5-(2-methyl-4-pyridyl)-1,3-thiazol-2-yl]amine] | 205 to 206
Cc1cc(C)cc(-c2nc(N)sc2-c2ccnc(C)c2)c1 [Example Compound 7-5, [4-(3,5-dimethylphenyl)-5-(2-methyl-4-pyridyl)-1,3-thiazol-2-yl]amine] | 219 to 220
Cc1cccc(N2C=C(c3cc(C)nc(C)c3)SC2N)c1 (centres unmarked) [Example Compound 7-6, [5-(2,6-dimethyl-4-pyridyl)-3-(3-methylphenyl)-1,3-thiazol-2-yl]amine] | 214 to 216
Cc1cc(C)cc(-c2nc(N)sc2-c2cc(C)nc(C)c2)c1 [Example Compound 7-7, [4-(3,5-dimethylphenyl)-5-(2,6-dimethyl-4-pyridyl)-1,3-thiazol-2-yl]amine] | 256 to 258
Cc1cc(-c2sc(N)nc2-c2ccc(F)cc2)ccn1 [Example Compound 7-8, [4-(4-fluorophenyl)-5-(2-methyl-4-pyridyl)-1,3-thiazol-2-yl]amine] | 233 to 234
CNc1nc(-c2cccc(C)c2)c(-c2ccnc(F)c2)s1 [Example Compound 8, N-methyl-[5-(2-fluoro-4-pyridyl)-4-(3-methylphenyl)-1,3-thiazol-2-yl]amine] | 186 to 187

SMILES | melting point [°C]
CNc1nc(-c2cccc(C)c2)c(-c2ccnc(C)c2)s1 [Example Compound 9, N-methyl-[4-(3-methylphenyl)-5-(2-methyl-4-pyridyl)-1,3-thiazol-2-yl]amine] | 164 to 165
Cc1cccc(-c2nc(N(C)C)sc2-c2ccnc(C)c2)c1 [Example Compound 10, N,N-dimethyl-[4-(3-methylphenyl)-5-(2-methyl-4-pyridyl)-1,3-thiazol-2-yl]amine] | 77 to 79
CCc1nc(-c2cccc(Cl)c2)c(-c2ccnc(F)c2)s1 [Example Compound 12, 2-ethyl-4-(3-chlorophenyl)-5-(2-fluoro-4-pyridyl)-1,3-thiazole] | 102 to 103
Cc1cccc(-c2nc(-c3ccccc3Cl)sc2-c2ccnc(C)c2)c1 [Example Compound 14-1, 2-(2-chlorophenyl)-4-(3-methylphenyl)-5-(2-methyl-4-pyridyl)-1,3-thiazole] | 83 to 84
Cc1cccc(-c2nc(-c3ccc(Cl)cc3)sc2-c2ccnc(C)c2)c1 [Example Compound 14-2, 2-(4-chlorophenyl)-4-(3-methylphenyl)-5-(2-methyl-4-pyridyl)-1,3-thiazole] | 104 to 105
Cc1cccc(-c2nc(-c3ccccc3F)sc2-c2ccnc(C)c2)c1 [Example Compound 14-3, 2-(2-fluorophenyl)-4-(3-methylphenyl)-5-(2-methyl-4-pyridyl)-1,3-thiazole] | 73 to 74
Cc1cccc(-c2nc(-c3ccc(F)cc3)sc2-c2ccnc(C)c2)c1 [Example Compound 14-4, 2-(4-fluorophenyl)-4-(3-methylphenyl)-5-(2-methyl-4-pyridyl)-1,3-thiazole] | 89 to 91
Cc1cccc(-c2nc(-c3ccc(F)cc3F)sc2-c2ccnc(C)c2)c1 [Example Compound 14-5, 2-(2,4-difluorophenyl)-4-(3-methylphenyl)-5-(2-methyl-4-pyridyl)-1,3-thiazole] | 90 to 91
Cc1cccc(-c2nc(-c3ccccc3)sc2-c2ccnc(C)c2)c1 [Example Compound 14-6, 4-(3-methylphenyl)-5-(2-methyl-4-pyridyl)-2-phenyl-1,3-thiazole] | 79 to 80
Cc1cccc(-c2nc(Cc3ccccc3)sc2-c2ccnc(C)c2)c1 [Example Compound 14-7, 4-(3-methylphenyl)-5-(2-methyl-4-pyridyl)-2-(phenylmethyl)-1,3-thiazole] | 82 to 84
Cc1cccc(-c2nc(CCc3ccccc3)sc2-c2ccnc(C)c2)c1 [Example Compound 14-8, 4-(3-methylphenyl)-5-(2-methyl-4-pyridyl)-2-(2-phenylethyl)-1,3-thiazole] | 64 to 65
CCOC(=O)c1nc(-c2cccc(C)c2)c(-c2ccnc(C)c2)s1 [Example Compound 14-12, Ethyl [4-(3-methylphenyl)-5-(2-methyl-4-pyridyl)-1,3-thiazol-2-yl]carboxylate] | 97 to 98
Cc1cccc(-c2nc(N3CCN(C)CC3)sc2-c2ccnc(C)c2)c1 [Example Compound 14-13, 4-(3-methylphenyl)-2-(4-methylpiperazin-1-yl)-5-(2-methyl-4-pyridyl)-1,3-thiazole] | 115 to 116
Cc1cccc(-c2nc(N3CCN(C)CC3)sc2-c2ccnc(C)c2)c1 [Example Compound 14-14, 4-(3-methylphenyl)-2-(1-methylpiperazin-4-yl)-5-(2-methyl-4-pyridyl)-1,3-thiazole] | 127 to 130
CSc1ccc(-c2nc(-c3cccc(C)c3)c(-c3ccnc(F)c3)s2)cc1 [Example Compound 15, 5-(2-fluoro-4-pyridyl)-4-(3-methylphenyl)-2-[4-(methylthio)phenyl]-1,3-thiazole] | 97 to 100
CSc1ccc(-c2nc(-c3cccc(C)c3)c(-c3ccnc(C)c3)s2)cc1 [Example Compound 16-1, 4-(3-methylphenyl)-5-(2-methyl-4-pyridyl)-2-[4-(methylthio)phenyl]-1,3-thiazole] | 119 to 122
CSc1ccc(-c2nc(-c3cc(C)cc(C)c3)c(-c3ccnc(C)c3)s2)cc1 [Example Compound 16-2, 4-(3,5-dimethylphenyl)-5-(2-methyl-4-pyridyl)-2-[4-(methylthio)phenyl]-1,3-thiazole] | 123 to 125
CSc1ccc(-c2nc(-c3cccc(C)c3)c(-c3cc(C)nc(C)c3)s2)cc1 [Example Compound 16-3, 5-(2,6-dimethyl-4-pyridyl)-4-(3-methylphenyl)-2-[4-(methylthio)phenyl]-1,3-thiazole] | 112 to 114
CSc1ccc(-c2nc(-c3cc(C)cc(C)c3)c(-c3cc(C)nc(C)c3)s2)cc1 [Example Compound 16-4, 4-(3,5-dimethylphenyl)-5-(2,6-dimethyl-4-pyridyl)-2-[4-(methylthio)phenyl]-1,3-thiazole] | 134 to 136
CSc1ccc(-c2nc(-c3ccc(F)cc3)c(-c3ccnc(C)c3)s2)cc1 [Example Compound 16-5, 4-(4-fluorophenyl)-5-(2-methyl-4-pyridyl)-2-[4-(methylthio)phenyl]-1,3-thiazole] | 99 to 100
